Measurements from patent publication US20220142948A1, “COMPOSITIONS AND METHODS FOR MODULATING METABOLIC REGULATORS OF T CELL PATHOGENICITY” (The Broad Institute, Inc., priority 2019, published 2022).
Entries after “also recorded” stand apart in the source; their conditions may differ.

Tests used:
[1] = test system: Th17 cells (Th17n, Th17p); experiment: Legendplex analysis of cytokines in culture supernatant; type: cell-based, mouse; conditions: glycolysis enzyme inhibitors; Th17 cell cultures
Procedure: (§1) Legendplex. Cytokine concentrations in supernatants of in vitro cultures were analyzed by the LegendPlex Mouse Th Cytokine Panel (13-plex) (BioLegend) according to the manufacturer's instructions and analyzed on a FACS LSR II (BD Biosciences).
Seahorse assay was performed and seahorse media was prepared following manufacturer instructions (Agilent). Cells were re-stimulated with PMA/ionomycin for four hours in the presence of brefaldin and monensin before analysis for cytokines by intracellular cytokine staining. Cytokine concentrations in supernatants of in vitro cultures were analyzed by the LegendPlex Mouse Th Cytokine Panel (13-plex) (BioLegend) according to the manufacturer's instructions and analyzed on a FACS LSR II (BD Biosciences).

[2] = test system: Th17 cells (Th17n, Th17p); experiment: T cell differentiation culture and flow cytometry (intracellular cytokine and transcription factor staining, CellTrace proliferation); conditions: for IL-17 positive CD4 T cells / IL-17 expression: glycolysis enzyme inhibitors, non-pathogenic or pathogenic Th17 conditions, cells after one division
Procedure: Naïve CD4+CD44-CD62L+CD25-T cells were sorted using BD FACSAria sorter and activated with plate-bound anti-CD3 (1 μg/ml) and antiCD28 antibodies (2 μg/ml) in the presence of cytokines at a concentration of 5×10^5 cells/ml.
Naïve CD4+CD44-CD62L+CD25− T cells with or without including IL-17A.GFP+ were sorted using BD FACSAria sorter and activated with plate-bound anti-CD3 and antiCD28 antibodies (each 1 μg/ml) in the presence of cytokines at a concentration of 5×10^5 cells/ml. For T cell differentiations the following combinations of cytokines were used: pathogenic Th17 (Th17p): 25 ng/ml rmIL-6, 20 ng/ml rmIL-1b (both Miltenyi Biotec) and 20 ng/ml rmIL-23 (R&D systems); non-pathogenic Th17 (Th17n): 25 ng/ml rmIL-6 and 2 ng/ml of rhTGFb1 (Miltenyi Biotec). For differentiation experiments, cells were harvested at 72 hours and were performed in the presence or absence of 50 μM EGCG (Selleck Chemicals), 50 μM DHEA, 40 μM DCA, 10 μM Shikonin (all Sigma) as indicated.
Proliferation was assessed by staining with CellTrace Violet (Thermo Fisher Scientific) per manufacturer's instructions. All stainings were analyzed on a FACS LSR II (BD Bioscience) and using FlowJo software.

UTX (KDM6A) = UTX (KDM6A) (Homo sapiens, UniProt O15550); conditions: cited from earlier work
KDMSB = KDMSB (Homo sapiens, UniProt Q9UGL1); conditions: cited from earlier work
KDMSC = KDMSC (Homo sapiens, UniProt P41229); conditions: cited from earlier work
KDMSA = KDMSA (Homo sapiens, UniProt P29375); conditions: cited from earlier work
[3] = test system: other histone demethylases; conditions: cited from earlier work
100 protein kinases = conditions: at a concentration of 30 μM; cited from earlier work
[4] = test system: Th17n, Th17p and iTreg cells; experiment: Population (bulk) RNA-seq of in vitro differentiated T cells; type: cell-based, mouse
Procedure: (§2) RNA-seq. For population (bulk) RNA-seq, in vitro differentiated T-cells were sorted for live cells and lysed with RLT Plus buffer and RNA was extracted using the RNeasy Plus Mini Kit (Qiagen). Full-length RNA-seq libraries were prepared as previously described and paired-end sequenced (75 bp×2) with a 150 cycle Nextseq 500 high output V2 kit.
Bulk RNA-Seq and SMART-Seq2 analysis. Applicants aligned single-cell SMART-Seq2 libraries with Bowtie2, quantified TPM gene expression with RSEM, and performed QC as Applicants described in detail in a previous publication^51. This computational pipeline is a massively revised and updated version of the one originally used to analyze these libraries^19. Batch effects and other nuisance factors were normalized with a model chosen empirically with SCONE ^52. Bulk RNA-Seq were processed with a modified variant of the same pipeline. In the absence of UMIs, differentially expressed genes were called through a linear model fitted to TPM values with the limma R package and with a mean-variance trend added to the empirical bayes prior^53,54.
as §2
Bulk RNA libraries from DFMO- or vehicle-treated Th17p, Th17n, or Treg were studied with 3 replicates per condition for a total of 18 libraries as shown in FIG. 36A. Genes that are associated with a Th17 or Treg programs (orange and purple, respectively, in FIG. 36B-C) were determined by differential expression test between bulk RNA libraries of (vehicle-treated) Th17n and Th17p on one side and Treg on the other with BH-adjusted p<0.05 and absolute value of log 2 fold-change of at least 1.5. Genes associated with the Th17p or Th17n program (magenta and green, respectively, in FIG. 40A) were determined by differential expression test between bulk RNA libraries of (vehicle-treated) Th17p vs. Th17n with the same thresholds. The PCA shown in FIG. 36A was computed on the set of 3,414 that were differentially associated with Th17, Treg, Th17p, or Th17n programs by the aforementioned criteria to focus it on the subspace of the transcriptome relevant to Th17 pathogenicity phenotypes.
Applicants aligned single-cell SMART-Seq libraries with Bowtie2, quantified TPM gene expression with RSEM, and performed QC as Applicants described in detail in a previous publication (Fletcher et al., 2017). This computational pipeline is a massively revised and updated version of the one originally used to analyze these libraries (Gaublomme et al., 2015). Batch effects and other nuisance factors were normalized with a model chosen empirically with SCONE (Cole et al., 2019). Bulk RNA-Seq were processed with a modified variant of the same pipeline.
For the Smart-Seq libraries, due the absence of UMIs in the dataset, differentially expressed genes were called through a linear model _tted to TPM values with the limma R package and with a mean-variance trend added to the empirical Bayes prior (Ritchie et al., 2015). For the bulk RNA libraries, differentially expressed genes were called with limma-trend or limma-voom (Law et al., 2014) depending on the variance of library sizes, as recommended in the limma package manual (Smyth, 2019).

[5] = test system: MOG35-55 specific T cells; experiment: Antigen-specific recall response of draining lymph node cells to MOG35-55 (thymidine incorporation, Legendplex); type: in vivo, mouse; conditions: mice transferred with DHEA-treated Th17p cells
Procedure: FIG. 37A-37I—Targeting ODC1 and SAT1 alleviate EAE. (A) Schematics of the polyamine pathway; (B-D) The effects of chemical inhibition of ODC1 by DFMO on EAE. Wildtype mice were immunized with MOG35-55/CFA to induce experimental autoimmune encephalomyelitis and followed for clinical scoring. DFMO were provided in drinking water from day 0 for 10 days in experimental group. B, Clinical score over time. […] C, Antigen-specific cell proliferation is measured by thymidine incorporation after culturing cells isolated from draining lymph node of mice (d15 post immunization) with increasing dose of MOG35-55 peptide for 3 days. D, Flow cytometric analysis of intracellular Foxp3 expression in T cells isolated from CNS at day 15 post immunization. (E-I) The effects of genetic perturbation of SAT1. E, The effects of SAT1 deficiency on metabolome. Abundance of metabolites in the polyamine pathway were determined by LC/MS based metabolomics. Th17n and Th17p cells were differentiated in vitro from naïve cells isolated from WT or SAT1^−/− mice. (F-I) The effects of SAT1 deficiency on EAE. EAE were induced as in (B) in wildtype and SAT1^fl/flCD4^cre mice. F, Clinical score (left) and histological score (right) showing the number of CNS infiltrates show representative experiment with 5 WT and 8 CKO mice. G-H, Cells were isolated from draining lymph node of mice (d23 post immunization) and co-cultured with increasing dose of MOG35-55 peptide for 3 days. Antigen-specific cell proliferation is measured by thymidine incorporation (G) and antigen-specific cytokine secretion by legendplex (H). I, Flow cytometry analysis of intracellular transcription factor expression in CD4 T cells isolated from CNS day 15 post immunization. Linear regression analysis (b, c, f, g), two-way anova (e) and student t test (d, i) were used for statistical analysis.
FIG. 46A-46J—EGCG exacerbates and DHEA ameliorates Th17-induced EAE in vivo. 2D2 TCR-transgenic Th17 cells were adoptively transferred after differentiation in vitro in the presence of an inhibitor or vehicle as indicated. (A, C, G) Clinical outcome of EAE; (B, D) Histological score based on cell infiltrates in meninges and parenchyma of CNS; (E, F) Draining lymph node (cervical) from respective mice were isolated and pulsed with increasing dose of MOG35-55 peptide for 3 days and (E) subjected to thymidine incorporation assay; or (F) measurement of cytokine secretion by Legendplex and flow cytometry. Concentrations were normalized through division by the respective response to no antigen control (H-I) Independent pathological report of CNS isolated from mice with EAE at end point (d35 for EGCG experiments; d28 for DHEA experiment); Optic nerves were not found in the histologic section from one animal in the EGCG+IL-23 group. (J) Representative histology of spinal cord and spinal nerve roots. […] PC, posterior column; PH, posterior horn. Individual mouse numbers are indicated. […] All are H. & E., 40× objective. Three similar experiments were performed.

[6] = test system: experimental autoimmune encephalomyelitis (EAE); experiment: Adoptive transfer EAE with 2D2 TCR-transgenic Th17 cells differentiated in the presence of inhibitor; type: in vivo, mouse
Source text: For adoptive transfer EAE, naïve 2D2 transgenic T cells were sorted and differentiated into Th17n cells+/−EGCG or Th17p+/−DHEA as described for three days followed by a resting phase in the presence of IL-23 alone for 2 days. Cells were then harvested and restimulated with plate-bound anti-CD3 and anti-CD28 for 2 days prior to transfer. 2-8 million cells were transferred per mouse intravenously.
For adoptive transfer EAE, naive T cells (CD4+CD44-CD62L+CD25-) were isolated from 2D2 TCR-transgenic mice and activated with anti-CD3 ([…]) and anti-CD28 ([…]) in the presence of differentiation cytokines for 68h. Cells were rested for 2 days and restimulated with plate-bound anti-CD3 (0.5 mg/ml for pathogenic condition; […] for non-pathogenic condition) and anti-CD28 ([…]) for 2 days prior to transfer. Equal number (2 to 8 million) cells were transferred per mouse intravenously.

Th17n and Th17p cells = experiment: Seahorse assay, oxygen consumption rate; type: cell-based, mouse; conditions: 40 uM etomoxir
Procedure: FIG. 44A-44I—Differential usage of glycolysis and fatty acid oxidation by pathogenic and non-pathogenic Th17 cells. (A) A diagram of central carbon metabolism, overlaid with Compass prediction for differential potential activity between Th17p and Th17n. […] (B) Th17n, Th17p and Treg cells were differentiated as described (STAR Methods) and replated with Seahorse media at 68h for Seahorse assay. Extracellular acidification rate (ECAR) and oxygen consumption rate (OCR) are reported in response to mitostress test. (C) Th17p and Th17n cells were differentiated and harvested at 68h (left columns) or replated in fresh media with no TCR stimulation or cytokine for 15 minutes (right columns) and subject to LC/MS based metabolomics. (D) Cells were harvested as in C and pulsed with 13C-tagged glucose for 15 minutes. Shown is the ratio of 13C-tagged carbon out of the total carbon content associated with the metabolite (STAR Methods). (E) Th17n and Th17p cells were measured for their oxygen consumption rate in the presence of control or 40 uM etomoxir. […]
as §1, with “Seahorse assay was performed and seahorse media was prepared following manufacturer instructions (Agilent). […]” for “Legendplex.”

KDMSB, sequence (Q9UGL1 whole entry): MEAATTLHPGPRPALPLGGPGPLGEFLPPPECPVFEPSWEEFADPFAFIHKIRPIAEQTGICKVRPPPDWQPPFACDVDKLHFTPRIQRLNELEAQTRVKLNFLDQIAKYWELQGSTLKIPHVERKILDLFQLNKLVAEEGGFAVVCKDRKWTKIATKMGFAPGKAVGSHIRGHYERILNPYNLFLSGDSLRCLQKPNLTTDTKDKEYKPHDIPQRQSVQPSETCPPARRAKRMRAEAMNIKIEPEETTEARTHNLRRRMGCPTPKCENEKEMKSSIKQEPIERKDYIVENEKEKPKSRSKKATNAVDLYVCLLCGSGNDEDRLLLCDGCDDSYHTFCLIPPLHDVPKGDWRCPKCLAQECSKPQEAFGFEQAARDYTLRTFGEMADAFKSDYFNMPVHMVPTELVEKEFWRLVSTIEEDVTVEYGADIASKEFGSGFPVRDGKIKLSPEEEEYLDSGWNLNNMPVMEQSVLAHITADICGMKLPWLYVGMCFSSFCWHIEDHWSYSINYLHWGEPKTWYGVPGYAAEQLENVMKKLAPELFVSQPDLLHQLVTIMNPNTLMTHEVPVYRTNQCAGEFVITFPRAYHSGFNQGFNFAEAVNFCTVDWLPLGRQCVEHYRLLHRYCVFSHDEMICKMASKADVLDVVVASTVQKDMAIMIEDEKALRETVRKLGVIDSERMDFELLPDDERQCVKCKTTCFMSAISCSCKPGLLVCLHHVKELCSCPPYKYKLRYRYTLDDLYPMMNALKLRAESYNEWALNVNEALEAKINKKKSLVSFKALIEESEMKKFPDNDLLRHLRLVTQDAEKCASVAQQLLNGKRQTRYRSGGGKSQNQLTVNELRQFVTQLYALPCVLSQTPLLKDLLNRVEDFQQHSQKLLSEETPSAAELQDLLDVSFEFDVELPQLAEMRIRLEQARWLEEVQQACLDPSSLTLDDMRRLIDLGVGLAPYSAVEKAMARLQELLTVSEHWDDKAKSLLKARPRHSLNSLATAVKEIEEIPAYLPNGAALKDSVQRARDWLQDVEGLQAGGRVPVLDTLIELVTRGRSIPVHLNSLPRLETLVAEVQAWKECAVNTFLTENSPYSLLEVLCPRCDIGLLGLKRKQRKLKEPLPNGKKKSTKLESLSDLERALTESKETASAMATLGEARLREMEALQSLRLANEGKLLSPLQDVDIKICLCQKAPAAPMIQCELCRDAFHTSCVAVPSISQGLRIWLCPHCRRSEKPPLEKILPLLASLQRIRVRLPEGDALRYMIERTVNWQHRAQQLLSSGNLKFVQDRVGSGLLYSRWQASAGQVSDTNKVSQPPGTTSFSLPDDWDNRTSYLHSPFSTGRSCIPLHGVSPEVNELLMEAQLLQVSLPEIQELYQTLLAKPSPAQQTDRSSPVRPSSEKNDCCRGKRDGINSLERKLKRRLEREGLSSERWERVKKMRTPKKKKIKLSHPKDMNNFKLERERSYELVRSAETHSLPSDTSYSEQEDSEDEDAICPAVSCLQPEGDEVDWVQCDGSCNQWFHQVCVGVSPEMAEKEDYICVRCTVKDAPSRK
KDMSA, sequence (P29375 whole entry): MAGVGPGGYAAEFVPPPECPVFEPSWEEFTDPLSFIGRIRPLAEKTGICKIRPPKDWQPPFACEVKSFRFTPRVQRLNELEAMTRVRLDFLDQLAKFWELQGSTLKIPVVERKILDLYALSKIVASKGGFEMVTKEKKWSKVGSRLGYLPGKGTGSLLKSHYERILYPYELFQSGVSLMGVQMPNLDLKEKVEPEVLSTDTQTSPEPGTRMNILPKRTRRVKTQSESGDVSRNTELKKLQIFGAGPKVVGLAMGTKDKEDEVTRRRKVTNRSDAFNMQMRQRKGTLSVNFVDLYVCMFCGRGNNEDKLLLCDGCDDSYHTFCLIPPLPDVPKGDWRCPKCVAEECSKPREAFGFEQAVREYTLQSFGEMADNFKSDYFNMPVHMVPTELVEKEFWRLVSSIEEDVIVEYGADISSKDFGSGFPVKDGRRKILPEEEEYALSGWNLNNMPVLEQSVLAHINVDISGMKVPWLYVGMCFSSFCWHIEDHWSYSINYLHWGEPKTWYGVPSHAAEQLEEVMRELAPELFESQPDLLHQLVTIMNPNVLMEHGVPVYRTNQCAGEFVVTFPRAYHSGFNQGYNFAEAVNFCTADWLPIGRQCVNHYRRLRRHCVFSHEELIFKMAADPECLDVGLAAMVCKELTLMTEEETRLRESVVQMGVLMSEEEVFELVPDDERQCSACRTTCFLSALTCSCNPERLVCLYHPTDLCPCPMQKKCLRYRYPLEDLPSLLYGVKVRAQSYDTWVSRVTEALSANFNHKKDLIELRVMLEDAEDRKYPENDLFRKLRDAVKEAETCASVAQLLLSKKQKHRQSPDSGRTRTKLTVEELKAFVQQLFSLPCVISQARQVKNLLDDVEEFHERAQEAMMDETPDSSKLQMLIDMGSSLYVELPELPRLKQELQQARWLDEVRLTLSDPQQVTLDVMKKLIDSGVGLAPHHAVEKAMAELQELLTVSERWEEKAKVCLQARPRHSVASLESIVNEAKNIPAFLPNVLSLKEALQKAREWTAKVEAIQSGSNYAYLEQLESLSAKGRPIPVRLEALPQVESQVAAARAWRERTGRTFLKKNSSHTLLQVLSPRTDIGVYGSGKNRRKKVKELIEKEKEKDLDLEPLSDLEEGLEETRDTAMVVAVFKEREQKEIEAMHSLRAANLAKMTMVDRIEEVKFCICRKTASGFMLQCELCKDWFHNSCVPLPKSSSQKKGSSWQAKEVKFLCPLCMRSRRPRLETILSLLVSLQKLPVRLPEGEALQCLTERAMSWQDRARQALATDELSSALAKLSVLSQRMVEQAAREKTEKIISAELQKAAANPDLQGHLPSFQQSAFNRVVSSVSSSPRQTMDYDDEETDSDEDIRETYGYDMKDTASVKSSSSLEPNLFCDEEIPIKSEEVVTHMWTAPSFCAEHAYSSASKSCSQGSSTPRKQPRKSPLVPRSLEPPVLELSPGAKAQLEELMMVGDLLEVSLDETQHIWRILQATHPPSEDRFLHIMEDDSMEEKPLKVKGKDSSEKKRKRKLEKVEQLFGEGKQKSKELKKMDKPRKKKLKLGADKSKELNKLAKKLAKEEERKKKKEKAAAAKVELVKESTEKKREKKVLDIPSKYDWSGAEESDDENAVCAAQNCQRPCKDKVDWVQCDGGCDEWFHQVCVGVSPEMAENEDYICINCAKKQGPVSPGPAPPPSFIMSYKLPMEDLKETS
KDMSC, sequence (P41229 whole entry): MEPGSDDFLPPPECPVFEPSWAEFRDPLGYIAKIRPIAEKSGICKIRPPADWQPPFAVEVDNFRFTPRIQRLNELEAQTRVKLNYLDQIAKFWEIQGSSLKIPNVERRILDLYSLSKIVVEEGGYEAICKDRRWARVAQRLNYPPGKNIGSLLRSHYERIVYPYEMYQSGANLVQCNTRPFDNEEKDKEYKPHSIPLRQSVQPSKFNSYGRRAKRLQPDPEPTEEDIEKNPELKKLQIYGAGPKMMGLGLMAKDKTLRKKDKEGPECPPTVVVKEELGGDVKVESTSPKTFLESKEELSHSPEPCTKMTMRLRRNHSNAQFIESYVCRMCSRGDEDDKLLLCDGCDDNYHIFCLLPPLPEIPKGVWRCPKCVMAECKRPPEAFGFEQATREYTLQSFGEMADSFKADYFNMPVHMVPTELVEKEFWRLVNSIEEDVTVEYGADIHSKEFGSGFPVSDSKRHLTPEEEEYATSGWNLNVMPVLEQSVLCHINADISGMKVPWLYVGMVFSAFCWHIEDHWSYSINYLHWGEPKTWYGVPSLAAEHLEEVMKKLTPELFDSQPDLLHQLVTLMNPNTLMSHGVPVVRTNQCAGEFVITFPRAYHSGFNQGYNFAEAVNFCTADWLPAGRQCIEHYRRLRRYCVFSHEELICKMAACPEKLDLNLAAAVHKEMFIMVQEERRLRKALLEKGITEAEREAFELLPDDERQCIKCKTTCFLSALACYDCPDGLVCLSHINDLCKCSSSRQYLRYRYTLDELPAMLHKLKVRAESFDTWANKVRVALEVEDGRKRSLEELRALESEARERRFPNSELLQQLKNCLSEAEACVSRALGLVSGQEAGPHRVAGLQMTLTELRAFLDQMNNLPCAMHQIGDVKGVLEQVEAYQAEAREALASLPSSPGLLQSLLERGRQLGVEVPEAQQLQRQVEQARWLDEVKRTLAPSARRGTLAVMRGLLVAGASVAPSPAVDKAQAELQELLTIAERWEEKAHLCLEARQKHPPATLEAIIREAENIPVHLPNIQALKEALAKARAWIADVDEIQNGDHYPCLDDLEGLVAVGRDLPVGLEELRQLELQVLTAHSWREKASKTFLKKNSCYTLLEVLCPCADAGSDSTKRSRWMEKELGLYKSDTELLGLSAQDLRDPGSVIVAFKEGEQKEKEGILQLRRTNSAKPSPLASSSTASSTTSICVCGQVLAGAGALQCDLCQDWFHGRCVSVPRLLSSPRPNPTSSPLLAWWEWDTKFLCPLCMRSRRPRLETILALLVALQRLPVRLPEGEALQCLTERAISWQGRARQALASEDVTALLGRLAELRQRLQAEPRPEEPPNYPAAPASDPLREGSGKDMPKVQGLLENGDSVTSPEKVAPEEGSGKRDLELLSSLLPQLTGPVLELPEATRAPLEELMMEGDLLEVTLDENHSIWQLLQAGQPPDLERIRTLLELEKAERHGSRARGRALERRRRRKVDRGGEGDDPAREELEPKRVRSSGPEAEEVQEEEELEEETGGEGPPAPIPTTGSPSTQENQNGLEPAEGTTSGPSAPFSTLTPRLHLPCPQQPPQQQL

Compound: O=C(OCC(O)CO)C(Cl)Cl (stereo not shown) [DCA, 2,3-dihydroxypropyl-dichloroacetate]
- cytokine profile / cytokine production [1]: retained their cytokine profile
- IL-17 positive CD4 T cells / IL-17 expression [2]: increase

Compound: O=C(O)CCNc1cc(N2CCc3ccccc3CC2)nc(-c2ccccn2)n1 [GSK-J1]
- IC50 (UTX (KDM6A)): 53 nM
- IC50 (KDMSB): 170 nM
- IC50 (KDMSC): 550 nM
- IC50 (KDMSA): 6800 nM
- IC50 [3]: > 20000 nM
- inhibitory activity against 100 protein kinases (100 protein kinases): no significant inhibitory activity

Compound: C[C@]12CC[C@H](O)CC1=CC[C@@H]1[C@@H]2CC[C@]2(C)C(=O)CC[C@@H]12 [DHEA, dehydroepiandrosterone]
- cytokine profile / cytokine production [1]: curtailed cytokine production
- IL1RN transcripts [4]: significant decrease
- IL9 transcripts [4]: significant decrease
- pro-pathogenic transcriptional program / module ([4]; Th17n cells): does not induce an opposite effect
- decrease in TBX21 (Tbet) transcripts ([4]; Th17p): 1 fold
- pathogenic program ([4]; Th17p cells): suppresses the pathogenic program
- IL23R transcripts ([4]; both Th17p and Th17n): significant decrease
- TBX21 transcripts ([4]; both Th17p and Th17n): significant decrease
- decrease in IL-23R transcripts ([4]; both Th17p and Th17n): over 3 fold
- position on PC1 (pathogenicity phenotype) ([4]; bulk RNA-Seq of d1 Th17n and Th17p cells): shifted them to a less pathogenic state
- IL-2 secretion in response to MOG [5]: increased
- antigen-specific cytokine secretion in response to MOG [5]: no significant alterations
- optic neuritis/perineuritis in host mice ([6]; EGCG on Th17n, DHEA on Th17p): restricted
- EAE induced by Th17p cells ([6]; Th17p cells differentiated with inhibitor vs vehicle): induced a milder form of the disease; also recorded: alleviates EAE; also recorded: reduced the severity of disease at peak of EAE; also recorded: ameliorates
- IL-17 positive CD4 T cells / IL-17 expression [2]: decrease

Compound: NCCCCN [putrescine]
- rescue by putrescine of the observed effects of ODC1−/− ([2]; ODC1−/− Th17 cells): rescued
- reversal by putrescine of the upregulation of Foxp3 by SAT1 inhibitor ([2]; Th17n cells, 2.5 mM putrescine): partially reversed
- rescue of the effect of DFMO by addition of putrescine ([2]; cells treated with DFMO, 2.5 mM putrescine): rescues the effect of DFMO; also recorded: completely reversed their phenotype
- rescue by putrescine of the effect of diminazene aceturate ([2]; non-pathogenic Th17 cells): rescues the effect of diminazene aceturate
- rescue of the effect of DFMO by addition of putrescine ([2]; non-pathogenic Th17 cells): rescues the effect of DFMO
- rescue by putrescine of the DFMO-induced increase in FoxP3 CD4 T cells ([2]; nonpathogenic Th17 cells): rescues the increase in FoxP3 CD4 T cells
- rescue of the effect of DFMO by addition of putrescine ([2]; pathogenic and non-pathogenic Th17 cells): rescues the effect of DFMO

Compound: CCOC(=O)[C@@]1(CCCCCCOc2ccc(Cl)cc2)CO1 [etomoxir]
- oxygen consumption rate (Th17n and Th17p cells): decreased
